According to patent US20200264182A1, “METHOD FOR DETECTING PROSTATE CANCER” (J-OIL MILLS, INC., priority 2017, published 2020):
Where no end group is shown, it is not given here.

Test system: serum fucosylated PSA
Assay: Sandwich ELISA, anti-PSA antibody and biotin-labeled lectin
Assay type: binding, human
Conditions: for Δ (=A − B): reaction value of Prostate cancer 4 minus Healthy 1; for lectin reaction value B of Healthy 1: serum of Healthy 1; for lectin reaction value A of Prostate cancer 4: serum of Prostate cancer 4, GS 6 (3 + 3)
In short: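 De-glycosylated anti-PSA antibody (5 μg/mL) captured PSA from 2-fold diluted serum, detected with biotin-PhoSL (0.1 μg/mL, 4° C, 30 min) in 0.1% BSA/diluted PBS+glycine-NaOH pH 9.6 or PBS pH 7.4, then HRP-streptavidin/TMB at Ab450-630. Values in U/mL from fucosylated PSA calibration, 10 ng/mL defined as 10 U/mL; AAL substituted for comparison.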

[1] = subject samples A, 7 healthy persons, pH 9.6
[2] = subject samples A, 9 patients, pH 9.6
[3] = subject samples B, n 9, high blood PSA but no cancer in biopsy, pH 9.6
[4] = subject samples B, n 11, pH 9.6

PhoSL: fucose α1→6 specific lectin that can be extracted from Pholiota squarrosa, SEQ ID No. 1 (APVPVTKLVCDGDTYKCTAYLDFGDGRWVAQWDTNVFHTG; not fully specified; ends and bridges not checked)
Δ (=A − B) (pH in lectin reaction 7.4): 72.6 U/mL
Δ (=A − B) (pH in lectin reaction 9.6): 126.9 U/mL
lectin reaction value B of Healthy 1 (pH in lectin reaction 7.4): 35.8 U/mL
lectin reaction value B of Healthy 1 (pH in lectin reaction 9.6): 51.9 U/mL
lectin reaction value of Healthy 2 (serum of Healthy 2, pH in lectin reaction 9.6): 55.9 U/mL
lectin reaction value of Healthy 3 (serum of Healthy 3, pH in lectin reaction 9.6): 63.9 U/mL
lectin reaction value of Healthy 4 (serum of Healthy 4, pH in lectin reaction 9.6): 74.9 U/mL
lectin reaction value of Healthy 5 (serum of Healthy 5, pH in lectin reaction 9.6): 55.8 U/mL
lectin reaction value of Healthy 6 (serum of Healthy 6, pH in lectin reaction 9.6): 39.7 U/mL
lectin reaction value of Healthy 7 (serum of Healthy 7, pH in lectin reaction 9.6): 59.0 U/mL
lectin reaction value of Prostate cancer 1 (serum of Prostate cancer 1, GS 4 (2 + 2), pH in lectin reaction 9.6): 115.8 U/mL
lectin reaction value of Prostate cancer 2 (serum of Prostate cancer 2, GS 5 (2 + 3), pH in lectin reaction 9.6): 116.7 U/mL
lectin reaction value of Prostate cancer 3 (serum of Prostate cancer 3, GS 6 (3 + 3), pH in lectin reaction 9.6): 104.5 U/mL
lectin reaction value A of Prostate cancer 4 (pH in lectin reaction 7.4): 108.4 U/mL
lectin reaction value A of Prostate cancer 4 (pH in lectin reaction 9.6): 178.8 U/mL
lectin reaction value of Prostate cancer 5 (serum of Prostate cancer 5, GS 7 (3 + 4), pH in lectin reaction 9.6): 115.8 U/mL
lectin reaction value of Prostate cancer 6 (serum of Prostate cancer 6, GS 7 (3 + 4), pH in lectin reaction 9.6): 167.5 U/mL
lectin reaction value of Prostate cancer 7 (serum of Prostate cancer 7, GS 8 (3 + 5), pH in lectin reaction 9.6): 125.6 U/mL
lectin reaction value of Prostate cancer 8 (serum of Prostate cancer 8, GS 8 (4 + 4), pH in lectin reaction 9.6): 129.8 U/mL
lectin reaction value of Prostate cancer 9 (serum of Prostate cancer 9, GS 8 (4 + 4), pH in lectin reaction 9.6): 251.4 U/mL
reaction value, Healthy person group, Average value [1]: 57.3 U/mL
reaction value, Healthy person group, Median value [1]: 55.9 U/mL
reaction value, Prostate cancer patient group, Average value [2]: 145.1 U/mL
reaction value, Prostate cancer patient group, Median value [2]: 125.6 U/mL
reaction value, GS6, Mean value (subject samples A, n 2, pH 9.6): 141.7 U/mL
reaction value, GS6, Median value (subject samples A, n 2, pH 9.6): 141.7 U/mL
reaction value, GS7, Mean value (subject samples A, n 2, pH 9.6): 141.7 U/mL
reaction value, GS7, Median value (subject samples A, n 2, pH 9.6): 141.7 U/mL
reaction value, Negative (GS5 or less), Mean value (subject samples A, n 2, pH 9.6): 116.3 U/mL
reaction value, Negative (GS5 or less), Median value (subject samples A, n 2, pH 9.6): 116.3 U/mL
reaction value, GS8 or more, Mean value (subject samples A, n 3, pH 9.6): 129.8 U/mL
reaction value, GS8 or more, Median value (subject samples A, n 3, pH 9.6): 168.9 U/mL
reaction value, GS8-9, Mean value (subject samples B, n 6, pH 9.6): 232.9 U/mL
reaction value, GS8-9, Median value (subject samples B, n 6, pH 9.6): 239.8 U/mL
reaction value, Negative, Mean value [3]: 203.8 U/mL
reaction value, Negative, Median value [3]: 178.0 U/mL
reaction value, GS6, Mean value (subject samples B, n 9, pH 9.6): 181.7 U/mL
reaction value, GS6, Median value (subject samples B, n 9, pH 9.6): 188.9 U/mL
reaction value, GS7, Mean value [4]: 119.5 U/mL
reaction value, GS7, Median value [4]: 210.6 U/mL
